Assay results reported in patent US11969431B2, “Formulations for treatment of post-traumatic stress disorder” (Glytech LLC, priority 2017, dated 2024).
“Also recorded” adds a separate entry of the source.

Columns and labels:
[1] = tested on: C57BL/6J mice; assay: Open field (OF) test, locomotor activity; settings: for Locomotor activity vs. vehicle: 30 min after administration; for Locomotor activity, Mean distance travelled over 30 min: C57BL/6J mice
[2] = Pharmacokinetics of D-cycloserine in humans after 500 mg (Zhu et al. 2001); format: in vivo; settings: corresponding to AUC over 24 hr
Source text: Critical parameters include maximum (peak) concentration achieved (Cmax), time to maximum concentration (Tmax) and area under the curve (AUC) during the dosing interval.

[3] = Pharmacokinetics of 250 mg PO D-cycloserine every 12 hrs in healthy volunteers (Park et al. 2015); format: in vivo, humans; settings: 250 mg PO every 12 hrs; corresponding to AUC over 12 hrs
[4] = target: T1, NMDAR (Homo sapiens, UniProt Q05586); settings: cited from earlier work
T1 construct: endogenous in cells; host or cells: human subjects in vivo (neuronal receptors); no isolated protein

[5] = tested on: Wistar-Kyoto (WKY) rats; assay: Cued fear conditioning / extinction training, freezing behavior in WKY rats; format: in vivo, rat; settings: for Freezing behavior, direction of change vs. vehicle: WKY rats, across days 1 and 3
Source text: Inbred Wistar-Kyoto (WKY) rats have been used as models of several behavioral deficits, such as stress vulnerability and sleep disturbance.
Fear memories are crucial in psychiatric conditions such as PTSD. Pavlovian fear conditioning (FC) test is a widely-used behavioral assay in rodents for measurement of aversive learning and memory through learned associations between aversive stimulus (a mild electric shock) and a specific cue (e.g., a tone; cued conditioning) or a context in which electric shock had occurred (contextual conditioning). Once the association is established, the conditioned stimulus (CS, i.e. tone or context) can induce fear response in a similar manner to unconditioned stimulus (US, i.e. electric shock). However, if CS repeatedly presents without combination of US, extinction occurs in normal animals. Fear extinction is usually regarded as a new inhibitory learning after repeated or prolonged CS presentations without the US, which causes a gradual decrease in the magnitude and/or frequency of the conditioned response (i.e. freezing response in FC test). Deficits in such inhibitory learning can be regarded as a hallmark of clinical PTSD.
Young adult (about 7 weeks of age), male WKY and Wistar rats purchased from Charles River Laboratory were used in this study. Upon receipt, animals were group-housed (2 per cage) and acclimated for at least 7 days. All rats were examined, handled, and weighed prior to initiation of the study to assure adequate health and suitability. During the course of the study, 12/12 light/dark cycles were maintained. The room temperature was maintained between 20 and 23° C. with a relative humidity maintained around 50%. Rats were randomly assigned to each treatment group. All testing was conducted during the animals' light cycle.
When combined with DSC, the combinations were given in a cocktail 30 minute prior to extinction test • D-CPP-ene (5 mg/kg) was be dissolved in acidified saline and administered s.c 30 min prior to extinction test at a dose volume of 2 ml/kg • Lurasidone (Lur, 0.2 mg/kg was dissolved in saline and administered IP 30 min prior to test at a dose volume of 1 ml/kg • Quetiapine (QTP, 10 mg/kg) was dissolved in acidified saline and administered s.c 30 min prior to test at a dose volume of 1 ml/kg
The experiment was conducted in the fear conditioning system manufactured by Coulbourn Instruments (PA, USA). Animal's body movements are captured with a video system and the FreezeFrame software, and freezing is analyzed automatically by the FreezeView software (Coulbourn Instruments, PA, USA).
Fear Conditioning Training: Animals were exposed to 5 CS-US pairings of a 10 sec tone (70 dB conditioned stimulus/CS) co-terminating with a brief electric shock (0.5 mA for 1.0 sec unconditioned stimulus/US). The 5 CS-US pairings are separated by a 60 sec interval with the first CS at 120 s. The rats stage in boxes for one minute after the last shock before being moved out.
Extinction training: Extinction training was conducted twice at 24 and 72 hr post FC training. A cued FC extinction paradigm was applied. The extinction training was conducted in the “cylinder”, a changed context which is different from the boxes of FC training. The extinction training lasted 32-40 min, including 8-10 identical bins. Each bin includes a 2 min tone period followed by a 2 min no-tone period (inter-trial interval, ITI).
Percent freezing during bins 7-8 of extinction trainings (24 hr and 72 hr) was used to evaluate effectiveness of treatment. Data were analyzed by […] analyses of variance (ANOVA), with treatment/group and extinction stage (cues or bins) set as factors. Fisher LSD method was used in Post hoc comparisons if applicable.

[6] = tested on: mice; assay: Marble burying test; format: in vivo; settings: Example 3
[7] = Pharmacokinetics of DCS in rodent, plasma level by UPLC/MS/MS; format: in vivo, C57BL/6J mice
Source text: Male C57BL/6J mice (8 weeks old) from Jackson Laboratories (Bar Harbor, Maine) were used. Upon receipt, mice were assigned unique identification numbers (tail marked) and were group housed in OPTImice cages. All animals were acclimated to the colony room for 1 week prior to testing. During the period of acclimation, animals were examined on a regular basis, handled, and weighed to assure adequate health and suitability. Animals were maintained on a 12/12 light/dark cycle. The room temperature was maintained between 20 and 23° C. with a relative humidity maintained between 30% and 70%. Chow and water were provided ad libitum for the duration of the study. All testing was performed during the animal's light cycle phase.
Sample were collected at 30, 60 and 120 min from separate animals. Mean plasma levels across the 30-120 min timepoint was used for analysis. At each time point, trunk blood was collected in tubes containing K2EDTA and kept on ice for short-term storage. Within 15 minutes of blood collection, tubes were centrifuged for 10 minutes at 10,000 RPM in a refrigerated centrifuge. The supernatant (plasma) was extracted and transferred to pre-labeled tubes on dry ice. Samples were stored at approximately −80° C. until analyses.
Analysis of DCS in plasma and brain samples were performed utilizing an UPLC/MS/MS system consisted of an Acquity UPLC chromatographic system and a Quattro Premier XE triple quad mass spectrometer, both from Waters.
The range of standards utilized was 1.0-1000 ng/mL. Plasma samples were prepared in the same manner but with 10 μL of sample and 90 μL of the internal standard mix to provide 100 μL of sample after dilution for triplicate analysis.
The internal standards D9-Ach (parent 154.95DA to fragment 86.7DA) was incorporated into the samples to correct for sample matrix and instrument variability providing a more robust data set.

[8] = target: T1, NMDAR; assay: D-cycloserine plasma concentrations linked to agonist, antagonist and toxic effects; summary of human PK studies; format: in vivo, humans; settings: consistent finding of human PK studies
Protocol: D-cycloserine is an anti-tuberculosis medication that also acts as a partial glycine-site […] (aka mixed agonist/antagonist). […] Plasma concentrations associated with primarily agonist effects are primarily […]. Plasma concentrations associated with antagonist effects are >25 μg/mi. Increased liability for toxicity is observed at plasma levels >35 μg/mL.
Accordingly, the daily dose for producing such plasma levels will necessarily be above 500 mg/day, as described above.

Q: For N[C@@H]1CON=C1O [D-cycloserine, 3-Isoxazolidinone, 4-amino-, (4R)-(9CI)], which “Locomotor activity vs. vehicle” value ([1]; D-cycloserine 30 mg/kg, p=0.5) is on record?
A: not significantly affected

Q: What about the “Locomotor activity vs. vehicle” value ([1]; D-cycloserine 300 mg/kg, p<0.001) of the same molecule?
A: significantly increased

Q: What about the “Locomotor activity vs. vehicle” value ([1]; D-cycloserine 1000 mg/kg, p<0.001) of the same molecule?
A: significantly increased

Q: And the “Locomotor activity, Mean distance travelled over 30 min” value ([1]; DCS 30 mg/kg IP)?
A: 4432.1

Q: And the “Locomotor activity, Mean distance travelled over 30 min” value ([1]; DCS 300 mg/kg IP)?
A: 7588.5

Q: What about the “median sustained plasma level” value [2] of the same molecule?
A: 8.9 microgram/mL

Q: And the mean plasma level [3]?
A: 20. 2 microgram/mL

Q: What about the “Plasma concentrations associated with antagonist effects” value ([4]; NMDAR glycine site) of the same molecule?
A: > 25 μg/mi

Q: What about the “Plasma levels at which increased liability for toxicity is observed” value ([4]; in vivo) of the same molecule?
A: > 35 µg/mL

Q: And the “Percentage WKY animals showing freezing behavior >85% of the time in response to cue stimuli across day 1 and 3 following fear conditioning, Mean” value ([5]; DCS 30 mg/kg IP 30 min prior to extinction test)?
A: 0.281

Q: What about the “Freezing behavior, direction of change vs. vehicle” value ([5]; DCS 30 mg/kg IP) of the same molecule?
A: no significant effect on freezing behavior

Q: And the “Percentage WKY animals showing freezing behavior >85% of the time in response to cue stimuli across day 1 and 3 following fear conditioning, Mean” value ([5]; DCS 300 mg/kg IP 30 min prior to extinction test)?
A: 0.113

Q: What about the “Freezing behavior, direction of change vs. vehicle” value ([5]; DCS 300 mg/kg IP, listed as DCS) of the same molecule?
A: significant reduction in freezing behavior; also recorded: Decrease

Q: And the “Effect of high-dose DCS on freezing when added to lurasidone” value ([5]; DCS 300 mg/kg added to lurasidone 0.2 mg/kg, p=0.09)?
A: tended to decrease freezing

Q: And the “Effect of high-dose DCS on freezing in combination with quetiapine” value ([5]; DCS 300 mg/kg with quetiapine 10 mg/kg, p=0.3)?
A: without statistical effect

Q: And the “Number of marbles buried compared to vehicle” value ([6]; D-cycloserine 30 mg/kg IP 30 min prior to test)?
A: did not affect this measure

Q: What about the “Number of marbles buried compared to vehicle” value ([6]; D-cycloserine 300 mg/kg IP 30 min prior to test) of the same molecule?
A: did not affect this measure

Q: And the DCS plasma level ([7]; 30 mg/kg IP, mice, mean across 30-120 min, difference from 25 not significant (p=0.2))?
A: below 25 microgram/mL

Q: What about the DCS plasma level ([7]; 100 mg/kg and above IP, mice, mean across 30-120 min, p<0.01) of the same molecule?
A: > 25 microgram/mL

Q: What about the DCS plasma level ([7]; 300 mg/kg DCS as in prior examples) of the same molecule?
A: > 25 micrograms/mL

Q: What about the “Sustained plasma level following 500 mg administration” value [8] of the same molecule?
A: below 25 microgram/mL
